Assay results reported in patent US12077503B2, “Substituted cyclic amides and their use as herbicides” (FMC CORPORATION, priority 2015, dated 2024).

Assays:
Assay type in all cases: in vivo
rice (Oryra sativa) = test: Test B flooded paddy test; details: Oryza sativa, Flood, 250 g ai/ha; scale of 0 to 100 where 0 is no effect and 100 is complete control; read-out: Rice plant response rating
Procedure, shortened: (§1)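 Visual ratings (0 none to 100 complete control) are relative to untreated plants, taken 13–15 d after treatment in a greenhouse. Test material went straight into floodwater standing 3 cm above the soil, kept constant, on plants at the 2-leaf stage.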

[1] = tested on: sedge, umbrella (small-flower umbrella sedge, Cyperus difformis); test: Test B flooded paddy test; details: Cyperus difformis, Flood, 250 g ai/ha; scale of 0 to 100 where 0 is no effect and 100 is complete control; read-out: Sedge, Umbrella plant response rating
Procedure, shortened: as §1

[2] = tested on: ducksalad (Heteranthera limosa); test: Test B flooded paddy test; details: Heteranthera limosa, Flood, 250 g ai/ha; scale of 0 to 100 where 0 is no effect and 100 is complete control; read-out: Ducksalad plant response rating
Procedure, shortened: as §1

[3] = tested on: barnyardgrass (Echinochloa crus-galli); test: Test B flooded paddy test; details: Echinochloa crus-galli, Flood, 250 g ai/ha; scale of 0 to 100 where 0 is no effect and 100 is complete control; read-out: Barnyardgrass plant response rating
Procedure, shortened: as §1

Kochia (Kochia scoparia) [4] = test: Test A postemergence; details: Bassia scoparia, post-emergence, 240 h, 125 g ai/ha, postemergence; visual injury after approximately 10 d; 0 to 100 scale (0 no effect, 100 complete control); read-out: Plant response rating, Kochia
Procedure, shortened: (§2)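 Ratings of 0 (no effect) to 100 (complete control) come from visual comparison with untreated controls roughly 10 d after treatment. Test chemicals, formulated in a non-phytotoxic solvent mixture with surfactant, were applied either as a preemergence directed soil spray on seeded soil or postemergence to one- to two-leaf plants 2 to 10 cm tall.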

corn (Zea mays) = test: Test A postemergence; details: Zea mays, post-emergence, 240 h, 125 g ai/ha, postemergence; visual injury after approximately 10 d; 0 to 100 scale (0 no effect, 100 complete control)
Procedure, shortened: as §2

[5] = tested on: ryegrass, Italian (Italian ryegrass, Lolium multiflorum); test: Test A postemergence; details: Lolium multiflorum, post-emergence, 240 h, 125 g ai/ha, postemergence; visual injury after approximately 10 d; 0 to 100 scale (0 no effect, 100 complete control); read-out: Plant response rating, Ryegrass, Italian
Procedure, shortened: as §2

[6] = tested on: giant foxtail (Setaria faberii); test: Test A postemergence; details: Setaria faberi, post-emergence, 240 h, 125 g ai/ha, postemergence; visual injury after approximately 10 d; 0 to 100 scale (0 no effect, 100 complete control); read-out: Plant response rating, Foxtail, Giant
Procedure, shortened: as §2

[7] = tested on: pigweed (Amaranthus retroflexus); test: Test A postemergence; details: Amaranthus retroflexus, post-emergence, 240 h, 125 g ai/ha, postemergence; visual injury after approximately 10 d; 0 to 100 scale (0 no effect, 100 complete control); read-out: Plant response rating, Pigweed
Procedure, shortened: as §2

[8] = tested on: wheat (Triticum aestivum); test: Test A postemergence; details: Triticum aestivum, post-emergence, 240 h, 125 g ai/ha, postemergence; visual injury after approximately 10 d; 0 to 100 scale (0 no effect, 100 complete control); read-out: Plant response rating, Wheat
Procedure, shortened: as §2

[9] = tested on: blackgrass (Alopecurus myosuroides); test: Test A postemergence; details: Alopecurus myosuroides, post-emergence, 240 h, 125 g ai/ha, postemergence; visual injury after approximately 10 d; 0 to 100 scale (0 no effect, 100 complete control); read-out: Plant response rating, Blackgrass
Procedure, shortened: as §2

[10] = tested on: barnyardgrass (Echinochloa crus-galli); test: Test A postemergence; details: Echinochloa crus-galli, post-emergence, 240 h, 125 g ai/ha, postemergence; visual injury after approximately 10 d; 0 to 100 scale (0 no effect, 100 complete control); read-out: Plant response rating, Barnyardgrass
Procedure, shortened: as §2

[11] = tested on: Galium (catchweed bedstraw, Galium aparine); test: Test A postemergence; details: Galium, post-emergence, 240 h, 125 g ai/ha, postemergence; visual injury after approximately 10 d; 0 to 100 scale (0 no effect, 100 complete control); read-out: Plant response rating, Galium
Procedure, shortened: as §2

[12] = tested on: ragweed (common ragweed, Ambrosia elatior); test: Test A postemergence; details: Ambrosia artemisiifolia, post-emergence, 240 h, 125 g ai/ha, postemergence; visual injury after approximately 10 d; 0 to 100 scale (0 no effect, 100 complete control); read-out: Plant response rating, Ragweed
Procedure, shortened: as §2

Kochia (Kochia scoparia) [13] = test: Test A preemergence; details: Bassia scoparia, pre-emergence, 240 h, preemergence, read-out: Plant response rating, Kochia
Procedure, shortened: as §2

O=C1NC[C@H](c2cscn2)[C@H]1C(=O)Nc1ccccc1F [Compound 752]
pest or weed control at 250 g/ha (rice (Oryra sativa)): 0%
pest or weed control at 250 g/ha [1]: 0%
pest or weed control at 250 g/ha [2]: 0%
pest or weed control at 250 g/ha [3]: 0%
pest or weed control at 125 g/ha (Kochia (Kochia scoparia) [4]): 40%
Corn plant response rating (crop injury, 0 = no effect, 100 = complete kill) at 125 g/ha (corn (Zea mays)): 0%
pest or weed control at 125 g/ha [5]: 20%
pest or weed control at 125 g/ha [6]: 50%
pest or weed control at 125 g/ha [7]: 0%
plant injury at 125 g/ha [8]: 0%
pest or weed control at 125 g/ha [9]: 0%
pest or weed control at 125 g/ha [10]: 60%
pest or weed control at 125 g/ha [11]: 70%
pest or weed control at 125 g/ha [12]: 20%
pest or weed control at 125 g/ha (Kochia (Kochia scoparia) [13]; 125 g ai/ha, visual rating after approx. 10 d, 0 to 100 scale where 0 is no effect and 100 is complete control): 60%
pest or weed control at 500 g/ha (Kochia (Kochia scoparia) [13]; 500 g ai/ha, 0 to 100 scale, 0 = no effect, 100 = complete control): 70%
